Results on one compound are retold here after patent publication US20090306032A1, “Use of solid lipid nanoparticles Comprising Cholesteryl Propionate and/or Cholesteryl Butyrate” (priority 2005, published 2009).

The term IC50 denotes the concentration that inhibits the measured activity by half. As a reminder, the inhibition is how much of the control response was suppressed.

The test system of experiment [1] is adhesion of polymorphonuclear cells to HUVEC cells. Kind of experiment: Adhesion assay, PMN to HUVEC, PAF stimulus. In kind it is cell-based. The settings on record: Homo sapiens, 5 min. The protocol: (§1) Human umbilical vein endothelial cells (HUVEC cells) were suitably treated, grown to confluence in 24 well plates, washed and maintained for one day in M199 medium supplemented with 10% BCS (Bovine Calf Serum).
(§2) Polymorphonuclear cells (PMN) were prepared from citrated venous blood obtained from healthy volunteers. Polymorphonuclear cells (PMN), at the concentration of 10^7 cells/ml were labeled with fluorescein diacetate (5 μg/ml) for 30 minutes at 37° C., washed with BSS and plated at the concentration of 10^6 cells per well in a final volume of 0.25 ml of BSS.
(§3) The antiadhesive effects of cholesteryl butyrate nanoparticles prepared in example 1 and of sodium butyrate were measured by an adhesion assay. In detail, human polymorphonuclear cells and HUVEC endothelial cells were incubated with increasing concentrations of cholesteryl butyrate or sodium butyrate nanoparticles in presence of a substance, PAF or IL-1β, which induces adhesion of PMN cells to endothelial HUVEC cells. Adhesion was then assessed by fluorescence microimaging.
a) The effect of cholesteryl butyrate nanoparticles prepared as in example 1, or of sodium butyrate, on adhesion of polymorphonuclear cells to HUVEC cells was examined in presence of the adhesion stimulus provided by PAF (10^−7M). […]

Experiment [2] has the same test system. Kind of experiment: Adhesion assay, PMN to HUVEC, IL-1β stimulus. In kind it is cell-based. The settings on record: Homo sapiens, 4 h, read-out: inhibition of the adhesion. The protocol:
as §1, §2, §3
b) The effect of cholesteryl butyrate nanoparticles prepared in example 1 or of sodium butyrate on adhesion of polymorphonuclear cells to HUVEC cells was also examined in presence of the adhesion stimulus provided by IL-1β (0.05 ng/ml). […]

For the compound `CCCC(=O)[O-].[Na+]` [sodium butyrate], the IC50 in experiment [1] (read-out: IC50 (inhibition of adhesion)) is 400 nM. Besides, the inhibition at 10 µM worked out at 74% in experiment [1] (read-out: inhibition of the adhesion) and 22% in experiment [2].
